Assay results reported in patent publication US7186825B2, “Conformationally restricted polyamine analogs as disease therapies” (Cellgate, Inc., priority 1999, dated 2007).
Read-outs that look alike come from different tables or passages of the source.

Legend:
Type in all cases: cell-based
[1] = tested on: human prostate cancer cells PC3; assay: MTT assay, survival/growth of cultured human prostate cancer cells PC3; settings: Homo sapiens; for EC50: PC-3, 144 h, figure legends, survival of cultured PC3 cells, MTT, six days after drug treatment, read-out: ED50 (the source's name)
Description: (§1) Human breast cancer cell line MCF7 was grown in Richter's Improved Modified Eagle's Medium supplemented with 10% fetal bovine serum (FBS) and 2.2 g/L sodium bicarbonate. Human brain tumor cell line U251 MG-NCI was grown in Dulbecco's Modified Eagle's Medium supplemented with 10% FBS. Human lung cancer cell line A549 was grown in Ham's F-12K medium (Cellgro, Mediatech, Inc., VA), supplemented with 10% FBS and 2 mM L-glutamine. Human colon cancer cell line HT29 was cultured in McCoy's 5A medium (Gibco, BRL, Gaithersburg, Md.) supplemented with 10% FBS. Human prostate cancer cell lines PC-3, LNCAP and DuPro were grown in RPMI 1640 Medium (Cellgro, Mediatech, Inc., VA) supplemented with 10% FBS. Another human prostate cancer cell line DU145 was grown in Dulbecco's Modified Eagle's Medium (Gibco, BRL, Gaithersburg, Md.) supplemented with 5% FBS. The A549, MCF7, PC3, LNCAP and DuPro cell lines were cultured in 100 units/mL penicillin and 100 μg/mL streptomycin. HT29 and U251MG cell lines were grown in 50 μg/mL gentamycin (Gibco, BRL, Gaithersburg, Md.). DU145 cell line was maintained in 1% antibitic-antimycotic solution (Sigma, St. Louis, Mo.). The cell cultures were maintained at 37° C. in 5% CO2/95% humidified air. DuPro cells were obtained from M. Eileen Dolan, University of Chicago. All other cells are available from the American Type Culture Collection, Rockville, Md.
(§2) A conventional MTT assay was used to evaluate percent cell survival. Exponentially growing monolayer cells were plated in 96-well plates at a density of 500 cells per well and allowed to grow for 24 hours. Serial dilutions of the drugs were added to the wells. Six days after drug treatment, 25 μl of MTT solution (5 mg/ml) was added to each well and incubated for 4 hours at 37° C. Then 100 μl of lysis buffer (20% sodium dodecyl sulfate, 50% DMF, and 0.8% acetic acid, pH 4.7) was added to each well and incubated for an additional 22 hours. A microplate reader (“EMAX”-brand, Molecular Devices, Sunnyvale, Calif.) set at 570 nm was used to determine the optical density of the cultures. Results are expressed as a ratio of the optical density in drug-treated wells to the optical density in wells treated with vehicle only.
(§3) Using the protocols of Example 2, the porphyrin-polyamine conjugates were tested for activity in vitro in various cancer cell lines.

[2] = tested on: human prostate cancer cells DU145; assay: MTT assay, survival/growth of cultured human prostate cancer cells DU145; settings: Homo sapiens; for EC50: DU-145, 144 h, figure legends, survival of cultured DU145 cells, MTT, six days after drug treatment, read-out: ED50 (the source's name); for IC50: DU-145
Description: as §1, §2, §3

[3] = tested on: human prostate cancer cells DUPRO; assay: MTT assay, survival/growth of cultured human prostate cancer cells DUPRO; settings: Homo sapiens
Description: as §1, §2, §3

[4] = tested on: human colon cancer cells HT29; assay: MTT assay, survival/growth of cultured human colon cancer cells HT29; settings: Homo sapiens; for IC50: read-out: concentration needed for 50% growth inhibition (ID50), Table 3, HT-29
Description: (§4) As shown in Table 3 and FIGS. 1–32, several novel conformationally restricted polyamine analogs were tested for anti-proliferative properties against cancer cells.
as §1, §2

[5] = tested on: human lung cancer cells A549; assay: MTT assay, survival/growth of cultured human lung cancer cells A549; settings: Homo sapiens; for EC50: 144 h, figure legends, survival of cultured A549 cells, MTT, six days after drug treatment, read-out: ED50 (the source's name); for IC50: read-out: concentration needed for 50% growth inhibition (ID50), Table 3, A549
Description: as §4, §1, §2

[6] = tested on: human breast cancer cells MCF7; assay: MTT assay, survival/growth of cultured human breast cancer cells MCF7; settings: Homo sapiens; for EC50: 144 h, figure legends, survival of cultured MCF7 cells, MTT, six days after drug treatment, read-out: ED50 (the source's name); for IC50: read-out: concentration needed for 50% growth inhibition (ID50), Table 3, MCF7
Description: as §4, §1, §2

[7] = tested on: human prostate cancer cells LNCAP; assay: MTT assay, survival/growth of cultured human prostate cancer cells LNCAP; settings: Homo sapiens, 144 h, figure legends, survival of cultured LNCAP cells, six days after drug treatment, read-out: ED50 (the source's name)
Description: as §1, §2, §3

[8] = read-out: concentration needed for 50% growth inhibition (ID50), Table 3, PC-3
[9] = read-out: concentration needed for 50% growth inhibition (ID50), Table 3
[10] = 144 h, figure legends, survival of cultured DUPRO cells, MTT, six days after drug treatment, read-out: ED50 (the source's name)
[11] = read-out: concentration needed for 50% growth inhibition (ID50), Table 3, DUPRO

Row | Structure (SMILES) | EC50 [1] [nM] | IC50 [1, 8] [µM] | EC50 [2] [nM] | IC50 [2, 9] [µM] | EC50 [3, 10] [nM] | IC50 [3, 11] [µM] | IC50 [4] [nM] | EC50 [5] [nM] | IC50 [5] [nM] | EC50 [6] [nM] | IC50 [6] [nM] | IC50 [3, 10] [µM] | EC50 ([4]; HT-29, 144 h, figure legends, survival of cultured HT29 cells, MTT, six days after drug treatment, read-out: ED50 (the source's name)) [nM] | EC50 [7] [nM] | IC50 ([1]; Table 4, PC3, growth by MTT assay, read-out: IC50 (μM) in different cell lines) [µM] | IC50 ([2]; Table 4, DU145, growth by MTT assay, read-out: IC50 (μM) in different cell lines) [µM] | IC50 ([3]; Table 4, DUPRO, growth by MTT assay, read-out: IC50 (μM) in different cell lines) [µM]
1 | CCNCCCCNC/C=C\CNCCCCNCCCCNCC [SL-11122] | > 31200 | > 31.2 | 80 | 0.8 | 560 | 0.56 | 800 | > 31200 | > 31200 | > 31200 | > 31200 | – | – | – | – | – | –
2 | CCNCCCCNC/C=C\CNC/C=C\CNCCCCNCC [SL-11123] | > 31200 | > 31.2 | 510 | 0.51 | – | > 31.2 | 10400 | > 31200 | > 31200 | > 31200 | > 31200 | > 31.2 | – | – | – | – | –
3 | CCNC1CCCC1CNCCCNCC1CCCC1NCC (stereo not drawn) [SL-11124] | > 31200 | > 31.2 | > 31200 | > 31.2 | > 31200 | > 31.2 | > 31200 | > 31200 | > 31200 | > 31200 | > 31200 | – | > 31200 | – | – | – | –
4 | CCNC/C=C\CNC/C=C\CNCCCCNCCCCNCC [SL-11127] | > 31200 | > 31.2 | 220 | 0.22 | 1300 | 1.3 | 2910 | – | – | – | – | – | – | – | – | – | –
5 | CCNC/C=C\CNC/C=C\CNCCCCNC/C=C\CNCC [SL-11129] | 1700 | 1.7 | 320 | – | – | – | – | – | – | – | – | > 31.2 | – | – | – | – | –
6 | CCNC/C=C\CNC/C=C\CNC/C=C\CNCCCCNCC [SL-11130] | > 31200 | > 31.2 | 430 | 0.43 | – | – | – | – | – | – | – | > 31.2 | – | – | – | – | –
7 | CCNCCCNCCCNCC1CCCC1NCC (stereo not drawn) [SL-11132] | > 31200 | – | 15 | – | > 31200 | – | – | – | – | – | – | – | – | – | – | – | –
8 | CCNC/C=C\CNCCCCNC/C=C\CNCCCCNCC [SL-11133] | > 31200 | – | 340 | – | – | – | – | – | – | – | – | 31.2 | – | – | – | – | –
9 | CCNCCCCNCCCCNCCCCNCCCCNCCO [SL-11141] | > 31200 | – | 130 | – | 710 | – | – | – | – | – | – | – | – | 70 | – | – | –
10 | CCNCCCCNCCCCNCCCCNCCCCNC/C=C\CNCCCCNCCCCNCCCCNCCCCNCC [SL-11150] | – | – | 110 | – | 480 | – | – | – | – | – | – | – | – | 230 | – | – | –
11 | CCNCCCCNCCCCNCCCCNCCCC1=C(C)c2cc3[nH]c(cc4nc(cc5[nH]c(cc1n2)c(CCCNCCCCNCCCCNCCCCNCC)c5C)C(CC)=C4C)c(CC)c3C [SL-11202] | – | – | – | – | – | – | – | – | – | – | – | – | – | – | 1.15 | 4.6 | 1.3
